Tested on: patients with ALK-positive NSCLC
Experiment: Phase 1 safety assessment (TRAEs by CTCAE 4.03, DLT, MTD, RP2D)
Format: in vivo, human
Experimental: In the dose-escalation phase, the dose was escalated sequentially from a low to a high level with a 3 + 3 dose-escalation scheme based on the modified Fibonacci method. The starting dose for conteltinib was 50 mg orally quaque die (QD). Dose escalation proceeded to the next six cohorts of 100 mg, 200 mg, 300 mg, 450 mg, 600 mg, and 800 mg QD. For each dose, there was a PK lead-in phase where a single dose was given 7 days before cycle 1 day 1. Then, each dose was taken continuously in a 28-day cycle. The first cycle was for dose-limiting toxicity (DLT) investigation. When one of three patients experienced a DLT in a dose cohort, three additional patients were enrolled in the same dose cohort to assess the dose level in a total of six patients. All patients received conteltinib until disease progression, unacceptable toxicity, or withdrawal of consent. Patients received follow-up safety assessments for 30 days (±7 days) after the last conteltinib dose.
In the dose-expansion phase, each dose was taken continuously in a 28-day cycle. At the end of each cycle, a safety evaluation was conducted. If patients met the criteria to enter the next cycle, treatment with conteltinib was continued for subsequent cycles. All patients received conteltinib until disease progression, unacceptable toxicity, or withdrawal of consent. Patients received follow-up safety assessments for 30 days (±7 days) after the last dose of conteltinib.
The safety of conteltinib was assessed in safety set (SS) which was based on the National Cancer Institute Common Terminology Criteria for Adverse Events (CTCAE) version 4.03, laboratory tests, vital signs, ECG, and clinical observations. […] Adverse events (AEs) were judged to be treatment-related or not by investigators.
DLTs were AEs occurring in the first cycle of treatment (28 days) that were attributed to conteltinib, and the criteria were grade 4 neutropenia lasting ≥ 7 days, febrile neutropenia, grade 3 thrombocytopenia, grade 3 non-hematologic toxicity, and any conteltinib-related toxicity resulting in treatment delay > 2 weeks or discontinuation of conteltinib treatment at the assigned dose level. Besides, grade 3 nausea, vomiting, or diarrhea for ≥ 3 days or grade 4 nausea, vomiting, or diarrhea of any duration was considered as a DLT. The MTD was defined as the dose of conteltinib that would be closest to but not higher than a 33% probability of a DLT.

Q: With `COc1cc(N2CCC(N3CCN(C)CC3)CC2)ccc1Nc1nc2c(c(Nc3ccccc3S(=O)(=O)NC(C)C)n1)CCN2` [Conteltinib] as the compound, how does the “TRAE Hypertriglyceridemia” value (800 mg QD (n=4), Grade ≥ 3) read?
A: 0 (0.0) n (%)

Q: And the “TRAE Hyperuricemia” value (800 mg QD (n=4), Grade ≥ 3)?
A: 0 (0.0) n (%)

Q: What about the “TRAE Hypoalbuminemia” value (800 mg QD (n=4), Grade ≥ 3) of the same compound?
A: 0 (0.0) n (%)

Q: What about the “TRAE Nausea” value (800 mg QD (n=4), Grade ≥ 3) of the same compound?
A: 0 (0.0) n (%)

Q: What about the “TRAE Proteinuria” value (800 mg QD (n=4), Grade ≥ 3) of the same compound?
A: 0 (0.0) n (%)

Q: And the “TRAE Serum creatinine elevated” value (800 mg QD (n=4), Grade ≥ 3)?
A: 0 (0.0) n (%)

Q: What about the “TRAE Vomiting” value (800 mg QD (n=4), Grade ≥ 3) of the same compound?
A: 0 (0.0) n (%)

Q: And the “TRAE Weight loss” value (800 mg QD (n=4), Grade ≥ 3)?
A: 0 (0.0) n (%)

Q: What about the “TRAE γ-GGT elevated” value (800 mg QD (n=4), Grade ≥ 3) of the same compound?
A: 0 (0.0) n (%)

Q: What about the DLTs (800 mg QD cohort) of the same compound?
A: No DLTs were observed

Q: And the “patients with permanent discontinuation due to TRAE” value (64 patients, impaired liver function)?
A: 3.1%

Q: And the “patients with TRAEs leading to conteltinib interruption” value (64 patients, serum creatinine elevated and impaired liver function)?
A: 6.3%

Q: What about the “patients with TRAEs leading to dose reduction” value (64 patients, serum creatinine elevated, neutropenia, impaired liver function) of the same compound?
A: 4.7%

Q: What about the “patients with grade ≥ 3 TRAEs” value (SS, 64 patients) of the same compound?
A: 14.1%

Q: What about the “TRAE ALT elevated” value (SS, 64 patients, all grades) of the same compound?
A: 34.4%

Q: What about the “TRAE AST elevated” value (SS, 64 patients, all grades) of the same compound?
A: 39.1%

Q: What about the TRAE Abdominal pain (SS, 64 patients, all grades) of the same compound?
A: 26.6%

Q: And the “TRAE Abdominal pain upper” value (SS, 64 patients, all grades)?
A: 17.2%

Q: What about the TRAE Appetite decreased (SS, 64 patients, all grades) of the same compound?
A: 18.75%

Q: And the “TRAE Conjugated bilirubin elevated” value (SS, 64 patients, all grades)?
A: 10.9%

Q: And the TRAE Diarrhea (SS, 64 patients, all grades)?
A: 71.9%

Q: And the TRAE Hypercholesterolemia (SS, 64 patients, all grades)?
A: 12.5%

Q: And the TRAE Hyperglycemia (SS, 64 patients, all grades)?
A: 15.6%

Q: And the TRAE Hypertriglyceridemia (SS, 64 patients, all grades)?
A: 23.4%

Q: What about the TRAE Hyperuricemia (SS, 64 patients, all grades) of the same compound?
A: 31.25%

Q: And the TRAE Hypoalbuminemia (SS, 64 patients, all grades)?
A: 17.2%

Q: And the TRAE Nausea (SS, 64 patients, all grades)?
A: 37.5%

Q: And the TRAE Proteinuria (SS, 64 patients, all grades)?
A: 21.9%

Q: What about the “TRAE Serum creatinine elevated” value (SS, 64 patients, all grades) of the same compound?
A: 45.3%

Q: What about the TRAE Vomiting (SS, 64 patients, all grades) of the same compound?
A: 35.9%

Q: What about the TRAE Weight loss (SS, 64 patients, all grades) of the same compound?
A: 28.1%

Q: And the “TRAE γ-GGT elevated” value (SS, 64 patients, all grades)?
A: 32.8%

Q: What about the “patients with TRAEs” value (SS, 64 patients, all grades) of the same compound?
A: 90.6%

Q: And the “TRAE Conjugated bilirubin elevated” value (SS, 64 patients, grade ≥ 3)?
A: 1.6%

Q: And the TRAE Diarrhea (SS, 64 patients, grade ≥ 3)?
A: 3.1%

Q: What about the “TRAE Serum creatinine elevated” value (SS, 64 patients, grade ≥ 3) of the same compound?
A: 1.6%

Q: And the “TRAE γ-GGT elevated” value (SS, 64 patients, grade ≥ 3)?
A: 7.8%

Q: And the “Patients with any TRAE” value (Total (n=64), All grade)?
A: 58 (90.6) n (%)

Q: What about the “TRAE ALT elevated” value (Total (n=64), All grade) of the same compound?
A: 22 (34.4) n (%)

Q: And the “TRAE AST elevated” value (Total (n=64), All grade)?
A: 25 (39.1) n (%)

Q: And the “TRAE Abdominal pain” value (Total (n=64), All grade)?
A: 17 (26.6) n (%)

Q: What about the “TRAE Abdominal pain upper” value (Total (n=64), All grade) of the same compound?
A: 11 (17.2) n (%)

Q: What about the “TRAE Appetite decreased” value (Total (n=64), All grade) of the same compound?
A: 12 (18.8) n (%)

Q: What about the “TRAE Conjugated bilirubin elevated” value (Total (n=64), All grade) of the same compound?
A: 7 (10.9) n (%)

Q: And the “TRAE Diarrhea” value (Total (n=64), All grade)?
A: 46 (71.9) n (%)

Q: What about the “TRAE Hypercholesterolemia” value (Total (n=64), All grade) of the same compound?
A: 8 (12.5) n (%)

Q: What about the “TRAE Hyperglycemia” value (Total (n=64), All grade) of the same compound?
A: 10 (15.6) n (%)

Q: And the “TRAE Hypertriglyceridemia” value (Total (n=64), All grade)?
A: 15 (23.4) n (%)

Q: And the “TRAE Hyperuricemia” value (Total (n=64), All grade)?
A: 20 (31.3) n (%)

Q: And the “TRAE Hypoalbuminemia” value (Total (n=64), All grade)?
A: 11 (17.2) n (%)

Q: And the “TRAE Nausea” value (Total (n=64), All grade)?
A: 24 (37.5) n (%)

Q: What about the “TRAE Proteinuria” value (Total (n=64), All grade) of the same compound?
A: 14 (21.9) n (%)

Q: What about the “TRAE Serum creatinine elevated” value (Total (n=64), All grade) of the same compound?
A: 29 (45.3) n (%)

Q: And the “TRAE Vomiting” value (Total (n=64), All grade)?
A: 23 (35.9) n (%)

Q: What about the “TRAE Weight loss” value (Total (n=64), All grade) of the same compound?
A: 18 (28.1) n (%)

Q: And the “TRAE γ-GGT elevated” value (Total (n=64), All grade)?
A: 21 (32.8) n (%)

Q: And the “Patients with any TRAE” value (Total (n=64), Grade 1–2)?
A: 58 (90.6) n (%)

Q: What about the “TRAE ALT elevated” value (Total (n=64), Grade 1–2) of the same compound?
A: 22 (34.4) n (%)

Q: And the “TRAE AST elevated” value (Total (n=64), Grade 1–2)?
A: 25 (39.1) n (%)

Q: What about the “TRAE Abdominal pain” value (Total (n=64), Grade 1–2) of the same compound?
A: 17 (26.6) n (%)

Q: What about the “TRAE Abdominal pain upper” value (Total (n=64), Grade 1–2) of the same compound?
A: 11 (17.2) n (%)

Q: And the “TRAE Appetite decreased” value (Total (n=64), Grade 1–2)?
A: 12 (18.8) n (%)

Q: What about the “TRAE Conjugated bilirubin elevated” value (Total (n=64), Grade 1–2) of the same compound?
A: 6 (9.4) n (%)

Q: And the “TRAE Diarrhea” value (Total (n=64), Grade 1–2)?
A: 44 (68.8) n (%)

Q: What about the “TRAE Hypercholesterolemia” value (Total (n=64), Grade 1–2) of the same compound?
A: 8 (12.5) n (%)

Q: What about the “TRAE Hyperglycemia” value (Total (n=64), Grade 1–2) of the same compound?
A: 10 (15.6) n (%)

Q: And the “TRAE Hypertriglyceridemia” value (Total (n=64), Grade 1–2)?
A: 15 (23.4) n (%)

Q: What about the “TRAE Hyperuricemia” value (Total (n=64), Grade 1–2) of the same compound?
A: 20 (31.3) n (%)

Q: And the “TRAE Hypoalbuminemia” value (Total (n=64), Grade 1–2)?
A: 11 (17.2) n (%)

Q: What about the “TRAE Nausea” value (Total (n=64), Grade 1–2) of the same compound?
A: 24 (37.5) n (%)

Q: What about the “TRAE Proteinuria” value (Total (n=64), Grade 1–2) of the same compound?
A: 14 (21.9) n (%)

Q: What about the “TRAE Serum creatinine elevated” value (Total (n=64), Grade 1–2) of the same compound?
A: 28 (43.8) n (%)

Q: What about the “TRAE Vomiting” value (Total (n=64), Grade 1–2) of the same compound?
A: 23 (35.9) n (%)

Q: And the “TRAE Weight loss” value (Total (n=64), Grade 1–2)?
A: 18 (28.1) n (%)

Q: And the “TRAE γ-GGT elevated” value (Total (n=64), Grade 1–2)?
A: 16 (25.0) n (%)

Q: And the “Patients with any TRAE” value (Total (n=64), Grade ≥ 3)?
A: 9 (14.1) n (%)

Q: What about the “TRAE ALT elevated” value (Total (n=64), Grade ≥ 3) of the same compound?
A: 0 (0.0) n (%)

Q: What about the “TRAE AST elevated” value (Total (n=64), Grade ≥ 3) of the same compound?
A: 0 (0.0) n (%)

Q: And the “TRAE Abdominal pain” value (Total (n=64), Grade ≥ 3)?
A: 0 (0.0) n (%)

Q: What about the “TRAE Abdominal pain upper” value (Total (n=64), Grade ≥ 3) of the same compound?
A: 0 (0.0) n (%)

Q: What about the “TRAE Appetite decreased” value (Total (n=64), Grade ≥ 3) of the same compound?
A: 0 (0.0) n (%)

Q: And the “TRAE Conjugated bilirubin elevated” value (Total (n=64), Grade ≥ 3)?
A: 1 (1.6) n (%)

Q: And the “TRAE Diarrhea” value (Total (n=64), Grade ≥ 3)?
A: 2 (3.1) n (%)

Q: And the “TRAE Hypercholesterolemia” value (Total (n=64), Grade ≥ 3)?
A: 0 (0.0) n (%)

Q: And the “TRAE Hyperglycemia” value (Total (n=64), Grade ≥ 3)?
A: 0 (0.0) n (%)

Q: What about the “TRAE Hypertriglyceridemia” value (Total (n=64), Grade ≥ 3) of the same compound?
A: 0 (0.0) n (%)

Q: What about the “TRAE Hyperuricemia” value (Total (n=64), Grade ≥ 3) of the same compound?
A: 0 (0.0) n (%)

Q: What about the “TRAE Hypoalbuminemia” value (Total (n=64), Grade ≥ 3) of the same compound?
A: 0 (0.0) n (%)

Q: And the “TRAE Nausea” value (Total (n=64), Grade ≥ 3)?
A: 0 (0.0) n (%)

Q: What about the “TRAE Proteinuria” value (Total (n=64), Grade ≥ 3) of the same compound?
A: 0 (0.0) n (%)

Q: What about the “TRAE Serum creatinine elevated” value (Total (n=64), Grade ≥ 3) of the same compound?
A: 1 (1.6) n (%)

Q: What about the “TRAE Vomiting” value (Total (n=64), Grade ≥ 3) of the same compound?
A: 0 (0.0) n (%)

Q: And the “TRAE Weight loss” value (Total (n=64), Grade ≥ 3)?
A: 0 (0.0) n (%)

Q: And the “TRAE γ-GGT elevated” value (Total (n=64), Grade ≥ 3)?
A: 5 (7.8) n (%)

Q: And the DLTs (dose-expansion phase)?
A: No DLTs were observed

Q: And the MTD (doses 50 to 800 mg QD)?
A: not reached

Q: And the deaths during treatment (in vivo)?
A: No patients died

Q: What about the rash (this study) of the same compound?
A: 6.25%

Q: What about the visual effects (this study) of the same compound?
A: 1.6%
